Activity calls are given as the source filed them. The rule behind the calls is not given here.

Test [1] deals with T1, Adenosine receptor A1 (Homo sapiens) (UniProt P30542).
T1 sequence (whole entry): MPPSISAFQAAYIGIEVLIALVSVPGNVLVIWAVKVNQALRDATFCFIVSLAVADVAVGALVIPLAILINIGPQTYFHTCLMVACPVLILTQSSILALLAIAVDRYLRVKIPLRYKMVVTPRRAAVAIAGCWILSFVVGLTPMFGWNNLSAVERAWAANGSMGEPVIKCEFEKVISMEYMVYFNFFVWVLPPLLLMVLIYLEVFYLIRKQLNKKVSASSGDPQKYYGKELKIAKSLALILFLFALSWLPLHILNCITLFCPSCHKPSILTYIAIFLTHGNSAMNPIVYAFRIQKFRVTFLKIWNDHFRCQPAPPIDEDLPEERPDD
Briefly: Displacement of [3H]DPCPX from human adenosine A1 receptor expressed in CHO cells at 10 uM after 60 mins by liquid scintillation counting. The format is cell-based.

Test [2] deals with Adenosine receptor A2a (Homo sapiens) (UniProt P29274). Briefly: Displacement of [3H][…] from human adenosine A2A receptor expressed in HeLa cells at 10 uM after 30 mins by liquid scintillation counting. The class given is cell-based.
Sequence of Adenosine receptor A2a (Homo sapiens) (P29274 whole entry): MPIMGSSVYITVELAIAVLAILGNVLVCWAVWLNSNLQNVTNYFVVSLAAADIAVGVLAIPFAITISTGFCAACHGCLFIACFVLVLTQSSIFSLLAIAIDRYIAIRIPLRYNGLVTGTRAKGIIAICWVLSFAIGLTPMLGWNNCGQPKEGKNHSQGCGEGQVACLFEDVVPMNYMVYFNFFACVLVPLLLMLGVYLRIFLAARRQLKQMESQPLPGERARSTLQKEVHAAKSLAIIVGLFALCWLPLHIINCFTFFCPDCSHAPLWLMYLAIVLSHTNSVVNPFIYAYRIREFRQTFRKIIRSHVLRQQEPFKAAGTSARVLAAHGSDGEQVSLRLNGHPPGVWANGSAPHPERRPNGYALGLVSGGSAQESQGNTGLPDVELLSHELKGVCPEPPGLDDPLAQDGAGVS
Test [3] deals with T2, Adenosine receptor A2b (Homo sapiens) (UniProt P29275).
T2 sequence (whole entry): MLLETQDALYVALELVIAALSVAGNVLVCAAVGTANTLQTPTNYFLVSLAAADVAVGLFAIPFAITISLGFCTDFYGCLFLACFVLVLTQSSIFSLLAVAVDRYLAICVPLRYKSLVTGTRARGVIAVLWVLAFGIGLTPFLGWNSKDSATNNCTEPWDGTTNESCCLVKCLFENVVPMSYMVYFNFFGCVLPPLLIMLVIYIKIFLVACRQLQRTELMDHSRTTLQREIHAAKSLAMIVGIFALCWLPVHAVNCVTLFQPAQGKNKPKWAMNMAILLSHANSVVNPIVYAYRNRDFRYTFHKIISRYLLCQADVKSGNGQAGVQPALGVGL
Briefly: Displacement of [3H]DPCPX from human adenosine A2B receptor expressed in HEK293 cells at 10 uM after 30 mins by liquid scintillation counting. The format is cell-based.

The target of test [4] is T3, Adenosine receptor A2b (Homo sapiens, UniProt P29275).
T3 sequence (P29275 whole entry): T2 sequence (whole entry)
Briefly: Displacement of [3H]DPCPX from human adenosine A2B receptor expressed in HEK293 cells after 30 mins by liquid scintillation counting. The class given is cell-based.

Test [5] is filed under the species Homo sapiens. Nature of the test: Selectivity ratio for human A2B adenosine receptor over human A3 adenosine receptor.
In test [6] the target is T4, Adenosine receptor A3 (Homo sapiens) (UniProt P0DMS8).
T4 sequence (whole entry): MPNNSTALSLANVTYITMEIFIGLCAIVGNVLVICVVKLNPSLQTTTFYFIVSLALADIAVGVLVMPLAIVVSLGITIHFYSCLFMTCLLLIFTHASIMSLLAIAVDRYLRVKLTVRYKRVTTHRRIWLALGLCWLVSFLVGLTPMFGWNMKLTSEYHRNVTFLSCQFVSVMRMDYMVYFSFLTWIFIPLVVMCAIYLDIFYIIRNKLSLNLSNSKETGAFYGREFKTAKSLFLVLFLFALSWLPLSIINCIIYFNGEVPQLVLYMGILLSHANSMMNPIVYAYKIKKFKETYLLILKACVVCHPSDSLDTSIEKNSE
Briefly: Displacement of [3H]NECA from human adenosine A3 receptor expressed in HeLa cells at 10 uM after 30 mins by liquid scintillation counting. The class given is cell-based.

On to `O=C(Nc1ccccc1)c1coc2ccccc2c1=O`, for which the Activity in test [1] is 3%; in test [2], 3%; in test [3], > 50%. Moreover, the Ki in test [4] came to 8.51 µM. Besides, the Selectivity ratio in test [5] is 2.
With `O=C(Nc1ccccc1)c1cc(=O)c2ccccc2o1`, the outcome in test [1], in test [2], in test [3] and in test [6] was Active.
On to `O=C(Nc1ccc(O)cc1)c1cc(=O)c2ccccc2o1`, for which the result in test [1], in test [2], in test [3] and in test [6] was Active.
Turning to `O=C(Nc1ccc(O)c(O)c1)c1cc(=O)c2ccccc2o1`, the result in test [1], in test [2], in test [3] and in test [6] was Active.
Turning to `O=C(Nc1ccc(O)c(O)c1)c1coc2ccccc2c1=O`, the Activity in test [3] is > 50%. In test [4], this molecule showed a Ki of 1.35 µM.
Regarding `COc1ccc(NC(=O)c2cc(=O)c3ccccc3o2)cc1O`, the outcome in test [1], in test [2], in test [3] and in test [6] was Active.
In the case of `O=C(O)c1cc(=O)c2ccccc2o1`, the outcome in test [1] and in test [6] was Active.
For the molecule `COc1ccc(NC(=O)c2coc3ccccc3c2=O)cc1OC`, the Activity in test [3] was > 50%. For the same molecule, the affinity in test [4] corresponds to a Ki of 6.39 µM.
For `O=C(Nc1ccc(O)cc1)c1coc2ccccc2c1=O`, the Activity in test [3] is > 50%. In test [4], this molecule came in with a Ki of 2.89 µM.
With `COc1ccc(NC(=O)c2cc(=O)c3ccccc3o2)cc1OC`, the result in test [1], in test [2], in test [3] and in test [6] was Active.
As to `COc1ccc(NC(=O)c2coc3ccccc3c2=O)cc1O`, the Activity in test [3] was > 50%. Besides, affinity in test [4] was put at a Ki of 5.82 µM.
